Square brackets hold non-standard residues; d marks the D form. Peptide text beside a SMILES is read from it. * marks the point of attachment. pGlu = O=C1CC[C@@H](C(=O)O)N1; Boc = CC(C)(C)OC(=O)*; Propionyl = CCC(=O)*; Bz = O=C(c1ccccc1)*
Tested on: spontaneously hypertensive rates (SHR rats)
Test: Measurement of change in blood pressure (systolic, indirect, conscious rats) after one oral dose
Assay type: in vivo, rat
Conditions: for Δ Blood Pressure (systolic): lowest value minus value before administration; for Systolic Blood Pressure, Lowest Value: after administration
Method: The antihypertensive activities of the amino acid derivatives as prepared above were determined.
As subject animals, there were used 5 spontaneously hypertensive rates (SHR rats) which had been sufficiently trained and confirmed to be hypertensive (mode, the body weight of 400 g) per a sample.
As an instrument for measuring the blood pressure there was used Programmed Electro-Sphygmomanometer PE-300 (Narco Co., U.S.A.), and the blood pressure was indirectly measured on conscious rats.
An aqueous solution of a sample (0.05 m mole/kg) was once force-fed into the stomach by means of a […] probe. As a control, the water as deionized was fed to the same animals as above.

[1] = SHR rats, single force-feeding into the stomach, 0.05 m mole/kg
[2] = second table (Examples 25-43), before administration
[3] = SHR rats, 5 per sample, before single force-feeding into the stomach of 0.05 m mole/kg aqueous solution

| Molecule | Systolic Blood Pressure, Lowest value after administration [1] [mm Hg] | Δ Blood Pressure (systolic) [1] [mm Hg] | Hrs. After Admin. (of lowest systolic blood pressure value) (second table (Examples 25-43)) [h] | Systolic Blood Pressure, Lowest Value (second table (Examples 25-43)) | Systolic Blood Pressure, Value Before Administration [2] | Δ Blood Pressure (systolic) (second table (Examples 25-43)) | Systolic Blood Pressure, Value Before Administration [3] [mm Hg] | Hours after administration (of lowest systolic blood pressure value) [1] [h] |
| --- | --- | --- | --- | --- | --- | --- | --- | --- |
| CCC(=O)N[C@@H](C)C(=O)N1CCC[C@H]1C(=O)N1CCC[C@H]1C(=O)O [Example 4, N-propionyl-L-alanyl-L-prolyl-L-proline] (Propionyl-Ala-Pro-Pro-OH) | 173 | -24 |  |  |  |  |  |  |
| C[C@H](NC(=O)c1cccs1)C(=O)N1CCC[C@H]1C(=O)N1CCC[C@H]1C(=O)O [Example 6, N-(2-thenoyl)-L-alanyl-L-prolyl-L-proline] | 182 | -20 |  |  |  |  |  |  |
| CCOC(=O)N[C@H](C(=O)N1CCC[C@H]1C(=O)N1CCC[C@H]1C(=O)O)[C@@H](C)CC.[Na] [Example 30, N--ethoxycarbonyl-L-isoleucyl-L-prolyl-L-proline sodium salt] |  |  | 4 | 208 | 224 | -16 |  |  |
| N-phenylcarbamoyl-L-alanyl-L-prolyl-L-proline L-arginine salt [Example 17] | 203 | -15 |  |  |  |  | 218 | 24 |
| O=C(N[C@@H](Cc1ccccc1)C(=O)N1CCC[C@H]1C(=O)N1CCC[C@H]1C(=O)O)c1ccccc1.[Na] [Example 26, N--Benzoyl-L-phenylalanyl-L-prolyl-L-proline sodium salt] (Bz-Phe-Pro-Pro-OH) |  |  | 8 | 194 | 228 | -34 |  |  |
| CCOC(=O)N[C@@H](CCC(=O)O)C(=O)N1CCC[C@H]1C(=O)O [Example 33, N--ethoxycarbonyl-L-glutamyl-L-proline] |  |  | 8 | 202 | 220 | -18 |  |  |
| O=C(NCC(=O)N1CCC[C@H]1C(=O)N1CCC[C@H]1C(=O)O)c1ccccc1 [Example 27, N--benzoyl-glycyl-L-prolyl-L-proline] (Bz-Gly-Pro-Pro-OH) |  |  | 8 | 209 | 232 | -23 |  |  |
| CCOC(=O)N[C@@H](CCSC)C(=O)N1CCC[C@H]1C(=O)N1CCC[C@H]1C(=O)[O-].[Na+] [Example 36, N--Ethoxycarbonyl-L-methionyl-L-prolyl-L proline sodium salt] |  |  | 8 | 206 | 223 | -17 |  |  |
| C[C@H](NC(=O)c1ccccn1)C(=O)N1CCC[C@H]1C(=O)N1CCC[C@H]1C(=O)O [Example 5, N-picolinoyl-L-alanyl-L-prolyl-L-proline] | 175 | -22 |  |  |  |  |  |  |
| CCS(=O)(=O)N[C@@H](CCSC)C(=O)N1CCC[C@H]1C(=O)N1CCC[C@H]1C(=O)O [Example 43, N--ethane sulfonyl-L-methionyl-L-prolyl-L-proline] |  |  | 8 | 198 | 229 | -31 |  |  |
| CCOC(=O)N[C@@H](C)C(=O)N1CCC[C@H]1C(=O)N1CCC[C@H]1C(=O)O [Example 1, N-ethoxycarbonyl-L-alanyl-L-prolyl-L-proline] | 155 | -38 |  |  |  |  |  |  |
| CCOC(=O)N[C@@H](CCCNC(=N)N)C(=O)N1CCC[C@H]1C(=O)N1CCC[C@H]1C(=O)O [Example 34, N--ethoxycarbonyl-L-arginyl-L-prolyl-L-proline] |  |  | 4 | 192 | 203 | -11 |  |  |
| C[C@H](NC(=O)[C@@H]1CCC(=O)N1)C(=O)N1CCC[C@H]1C(=O)N1CCC[C@H]1C(=O)O [Example 21, L-pyroglutamyl-L-alanyl-L-prolyl-L-proline] ([pGlu]APP-OH) | 190 | -29 |  |  |  |  |  |  |
| CC[C@H](C)[C@H](NS(=O)(=O)CC)C(=O)N1CCC[C@H]1C(=O)N1CCC[C@H]1C(=O)O.[Na] [Example 37, N--ethanesulphonyl-L-isoleucyl-L-prolyl-proline sodium salt] |  |  | 8 | 194 | 218 | -22 |  |  |
| CC[C@H](C)[C@H](NC(=O)c1ccccc1)C(=O)N1CCC[C@H]1C(=O)N1CCC[C@H]1C(=O)O [Example 25, N--benzoyl-L-isoleucyl-L-prolyl-L-proline] (Bz-Ile-Pro-Pro-OH) |  |  | 8 | 201 | 229 | -28 |  |  |
| O=C(O)[C@@H]1CCCN1C(=O)[C@@H]1CCCN1C(=O)[C@H](CO)NCc1ccccc1 [Example 29, N--benzyl-L-seryl-L-prolyl-L-proline] |  |  | 8 | 192 | 214 | -22 |  |  |
| C[C@H](NC(=O)OC(C)(C)C)C(=O)N1CCC[C@H]1C(=O)N1CCC[C@H]1C(=O)O [Example 16, N-t-butyloxycarbonyl-L-alanyl-L-prolyl-L-proline] (Boc-Ala-Pro-Pro-OH) | 173 | -21 |  |  |  |  |  |  |
| CCS(=O)(=O)N[C@@H](CCCNC(=N)N)C(=O)N1CCC[C@H]1C(=O)N1CCC[C@H]1C(=O)O [Example 41, N--ethane sulfonyl-L-arginyl-L-prolyl-L-proline] |  |  | 7 | 185 | 204 | -19 |  |  |
| N-benzylsulfonyl-L-alanyl-L-prolyl-L-proline L-arginine salt [Example 11] | 174 | -28 |  |  |  |  | 202 | 8 |
| CCS(=O)(=O)N[C@@H](C)C(=O)N1CCC[C@H]1C(=O)N1CCC[C@H]1C(=O)O [Example 12, N-ethanesulfonyl-L-alanyl-L prolyl-L-proline] | 159 | -45 |  |  |  |  | 204 | 24 |
| C[C@@H](C(=O)N1CCC[C@H]1C(=O)N1CCC[C@H]1C(=O)O)N1C(=O)c2ccccc2C1=O [Example 8, N-phthaloyl-L-alanyl-L prolyl-L-proline] | 207 | -18 |  |  |  |  | 225 | 4 |
| CCOC(=O)N[C@@H](CO)C(=O)N1CCC[C@H]1C(=O)N1CCC[C@H]1C(=O)O [Example 35, N--Ethoxycarbonyl-L-seryl-L-prolyl-L-proline] |  |  | 8 | 195 | 220 | -25 |  |  |
| CCOC(=O)NCC(=O)N1CCC[C@H]1C(=O)N1CCC[C@H]1C(=O)O.[Na] [Example 32, N--ethoxycarbonyl-glycyl-L-prolyl-L-proline sodium salt] |  |  | 8 | 193 | 215 | -22 |  |  |
| CCOC(=O)N[C@@H](Cc1ccccc1)C(=O)N1CCC[C@H]1C(=O)N1CCC[C@H]1C(=O)O.[Na] [Example 31, N--ethoxycarbonyl-L-phenylalanyl-L-prolyl-L-proline sodium salt] |  |  | 24 | 199 | 216 | -17 |  |  |
| CCS(=O)(=O)N[C@@H](Cc1ccccc1)C(=O)N1CCC[C@H]1C(=O)N1CCC[C@H]1C(=O)O [Example 38, N--ethanesulfonyl-L-phenylalanyl-L-prolyl-L-proline] |  |  | 8 | 201 | 235 | -34 |  |  |
| CCS(=O)(=O)NCC(=O)N1CCC[C@H]1C(=O)N1CCC[C@H]1C(=O)O [Example 39, N--ethanesulfonyl-glycyl-L-prolyl-L-proline] |  |  | 8 | 215 | 232 | -18 |  |  |
| N-phenylthiocarbamoyl-L-alanyl-L-prolyl-L-proline L-arginine salt [Example 18] | 211 | -13 |  |  |  |  | 224 | 24 |

Reference: US4719200A, “Amino acid derivatives and antihypertensive drugs containing the same” (Ajinomoto Co., Inc., priority 1984, dated 1988)
